Experimental findings from patent publication US20240277695A1, “FOXO INHIBITORS FOR USE IN THE TREATMENT OF DISEASES CAUSED BY ABNORMAL PROCESSING OF TDP-43 AND/OR FUS PROTEINS” (Administración General de la Comunidad Autónoma de Euskadi, priority 2020, published 2024) are described below.

“Also recorded” adds a separate entry of the source.

The subject of data set [1] is Drosophila with motor neuron-specific (OK6 promoter) Tbph silencing. Briefly: Locomotor activity (climbing) assay in motor neuron-specific Tbph/Caz knockdown flies. Format: in vivo, Drosophila melanogaster. Particulars: 30 μM, 20 days-old flies. An excerpt:
FIG. 9. FOXO1inh rescues (AS1842856) impaired climbing capacity induced by motor neuron-specific knockdown of ALS-causing ortholog genes in Drosophila melanogaster. Represented two different models of Tbph silence (silencing two different locus of Tbph gene) and one Caz (FUS ortholog) A) Locomotor activity of motor neuron specific (OK6 promoter) Tbph silencing Drosophila melanogaster using iTbph(p(KK08354)) plasmid. Generated genotypes; UAS-Dicer2-+-OK6-GAL4 (control) and UAS-Dicer2-iTbph^p(KK08354)-OK6-GAL4 (iTbph^p(KK08354)). B) Locomotor activity of motor neuron specific (OK6 promoter) Tbph silencing Drosophila melanogaster using iTbph(attP40) plasmid.; UAS-Dicer2-+-OK6-GAL4 (control) and UAS-Dicer2-iTbph^(attP40)-OK6-GAL4 (iTbph^(attP40)). C) Locomotor activity of motor neuron specific (OK6 promoter) Tbph silencing Drosophila melanogaster using iCaz plasmid.; UAS-Dicer2-+-OK6-GAL4 (control) and UAS-Dicer2-iCaz-OK6-GAL4 (iCaz). Assays were performed at 20 days-old flies and repeated 5 times each tube (5 flies/tube). Data are expressed as the percentage of flies passing for each group.
Two-way ANOVA was performed together Bonferroni post-hoc multiple comparison (*p<0.05; **p<0.01; ***p<0.001) or T-test for two groups comparisons (*p<0.05; **p<0.01; ***p<0.001). Values are expressed as mean+SD.
One of the most important features of ALS is motor neuron degeneration. […]

Data set [2] relates to iTbph^pkk(108254) Drosophila model. Briefly: Adult pharate lethality / pupa eclosion assay. The conditions noted are these: 30 μM. Format: in vivo. The protocol: FIG. 8. […] A) Number of total pupas and the eclosioned ones were counted in different 5 tubes each group. […] T-test was performed ***p<0,001. Values are expressed as percentage mean+SD.
As mentioned in Example 6, iTbph^pkk(108254) Drosophila completed the metamorphosis from larvae to adult within the pupa (a phase known as pharate), but were not able to eclode from the pupa and, consequently, died. This feature is termed as adult pharate lethality and allowed us to perform assays with which to judge the efficacy of FoxO inhibition.

Data set [3] deals with Drosophila flies with muscle-conditioned silencing of Caz or Tbph. Kind of data set: Climbing (locomotor activity) test in flies with muscle-conditioned silencing of Caz or Tbph. Format: in vivo, Drosophila melanogaster. The conditions noted are these: 30 μM; Caz- and Tbph-silenced flies; more pronounced in Tbph lines. An excerpt: (§1) FIG. 7. Foxo inhibition improves muscle function and lifespan in Drosophila flies with muscle-conditioned deficiency of TDP-43 or FUS. […] F, Caz or Tbph-silenced flies have reduced survival times, as indicated by Kaplan-Meier curves (left panel) and median lifespan (right panel) (n=100 flies per group). […] This effect was particularly noticeable in iCaz and iTbph^attp40) fly lines (n=100 flies per group). *p<0.05: **p<0.01, ***p<0.001.
(§2) After knowing that FoxO inhibition provides benefits to muscle cells in vitro, we wanted to further test the effects of targeting FoxO factors on muscle function under the context of TDP-43 or FUS loss-of-function in vivo. To that purpose, we generated various Drosophilamodels with muscle-conditioned silencing of either Cabeza (Caz) or Tbph genes, which are orthologs of human FUS or TARDBP, respectively. […] Drosophila has only one ortholog for mammalian FoxO factors, which is called foxo. Although the affinity of AS1842856 for Drosophila foxo has never been tested, the fact that FoxO DNA-binding sites, with which the inhibitor interacts, are well conserved among species, including Drosophila melanogaster (FIG. 7B) provides enough rationale to test its efficacy in Drosophila models.

Data set [4] relates to control Drosophila strain UAS-Dicer2-+-Mef2-GAL4. Briefly: Climbing assay and lifespan of treated control flies. The conditions noted are these: 30 μM. Format: in vivo, Drosophila melanogaster.
Excerpt: as §1, §2

The test system of data set [5] is shTDP-43-treated myoblasts. Kind of data set: Glu/Asp and Glu/Gln metabolite ratios by HPLC-MS and 1H-NMR in silenced myoblasts. Particulars: 30 nM. It is filed as cell-based, human. An excerpt:
One of the key endogenous factors that keep glycolytic flux ongoing is cytosolic NAD^+. In anaerobic muscles, malate-aspartate and glycerol-phosphate shuttles as well as glutaminolysis are main metabolic pathways that recycle cytosolic NAD+to support glycolysis (FIG. 3A). […] With respect malate-aspartate shuttle and glutaminolysis, TDP-43 silencing led to reduced levels of OGC1 (oxoglutarate carrier 1), GOT1 (glutamic-oxaloacetic transaminase), MDH1 (malate dehydrogenase), and ME1 (malic enzyme), but increased levels of glutaminase (FIG. 3B). […] We have also analyzed intermediate metabolites of malate-aspartate shuttle and glutaminolysis, including glutamate (Glu), glutamine (Gln) and aspartate (Asp), by means of HPLC-MS and ^1H-NMR, and calculated the ratios Glu/Asp and Glu/Gln to estimate fluxes of these reactions. […] In this sense, an abnormal glutaminolysis may account for the defects of NAD^+ recycling in FUS-silenced myoblasts.
We next explored the consequences of pharmacological or genetic inhibition of FoxO on metabolism and myogenesis in TDP-43 and FUS-silenced myoblasts. We treated all the different models of myoblasts with the compound AS1842856 at 30 nM during proliferation and let them differentiate, adding the compound at the same concentration every 2 days for 8 days. […]

The test system of data set [6] is MYOD. Kind of data set: MYOD expression in silenced myoblasts. Particulars: 30 nM; shTDP-43 and shFUS-treated myoblasts. Format: cell-based, human. An excerpt:
Myoblasts treated with control shRNA differentiated and formed MYHC-positive myotubes 2 days after reaching 100% confluence (FIG. 1I). However, TDP-43 and FUS knockdown affected the natural capacity of cultured myoblasts to fuse and form myotubes: shTDP-43-treated myoblasts remained undifferentiated for at least 2 days after reaching 100% confluence, and shFUS-treated myoblasts formed fewer myotubes (FIG. 1I). […] We then analyzed levels of MYOD and MYOG (Myogenin), two transcription factors that are required for myoblast commitment, differentiation and fusion, respectively.
In addition, treatment with the AS1842856 inhibitor modifies the expression of some of the FoxO-regulated genes that are crucial for proper myogenic differentiation.

Turning to `CCn1cc(C(=O)O)c(=O)c2c(N)c(F)c(NC3CCCCC3)cc21` [AS1842856], the “locomotor impairments in climbing assay” value in data set [1] was “rescues; also recorded: fully rescue locomotor impairments”. The “eclosion efficiency of pupas” value in data set [2] (UAS-Dicer2-iTbph^pkk(108254)-Mef2-GAL4) is on record as “significantly ameliorates”. Moreover, the “pharate lethality in control flies” value in data set [2] (control flies) is given as “did not produce pharate lethality”. Also, the “mitigation of pharate lethality” value in data set [2] (iTbph^pkk(108254) Drosophila) is recorded as “approximately 20%”. Moreover, the “muscle function (climbing activity)” value in data set [3] was “strong benefits on muscle function”. Also, in data set [4], the toxicity on lifespan entry is given as “lack of toxicity” and the “toxicity on motor function” value is given as “lack of toxicity”. In data set [5], the Glu/Asp ratio entry is “increase Glu/Asp ratio to the levels of control myoblasts” and the Glu/Gln ratio result is “without affecting Glu/Gln ratio”. In data set [6], the “expression of MYOD” value is recorded as “increased the expression of MYOD”.
